We go through three compounds from patent publication US9333205B2, “Isoxazolo-quinazolines as modulators of protein kinase activity” (NERVIANO MEDICAL SCIENCES S.R.L., priority 2010, dated 2016).

The target in one assay is MPS1 (Homo sapiens (Human), UniProt P33981). Kind of assay: Biochemical trans-phosphorylation (Dowex, 33P-γ-ATP) assay for inhibitors of MPS1 kinase activity. The settings on record: MPS1 5 nM, 15 microM ATP, P38-βtide 200 microM. The source says: Cloning, Expression and Purification of Recombinant MPS1 Full Length Protein.
Chain of MPS1 (P33981 2-857): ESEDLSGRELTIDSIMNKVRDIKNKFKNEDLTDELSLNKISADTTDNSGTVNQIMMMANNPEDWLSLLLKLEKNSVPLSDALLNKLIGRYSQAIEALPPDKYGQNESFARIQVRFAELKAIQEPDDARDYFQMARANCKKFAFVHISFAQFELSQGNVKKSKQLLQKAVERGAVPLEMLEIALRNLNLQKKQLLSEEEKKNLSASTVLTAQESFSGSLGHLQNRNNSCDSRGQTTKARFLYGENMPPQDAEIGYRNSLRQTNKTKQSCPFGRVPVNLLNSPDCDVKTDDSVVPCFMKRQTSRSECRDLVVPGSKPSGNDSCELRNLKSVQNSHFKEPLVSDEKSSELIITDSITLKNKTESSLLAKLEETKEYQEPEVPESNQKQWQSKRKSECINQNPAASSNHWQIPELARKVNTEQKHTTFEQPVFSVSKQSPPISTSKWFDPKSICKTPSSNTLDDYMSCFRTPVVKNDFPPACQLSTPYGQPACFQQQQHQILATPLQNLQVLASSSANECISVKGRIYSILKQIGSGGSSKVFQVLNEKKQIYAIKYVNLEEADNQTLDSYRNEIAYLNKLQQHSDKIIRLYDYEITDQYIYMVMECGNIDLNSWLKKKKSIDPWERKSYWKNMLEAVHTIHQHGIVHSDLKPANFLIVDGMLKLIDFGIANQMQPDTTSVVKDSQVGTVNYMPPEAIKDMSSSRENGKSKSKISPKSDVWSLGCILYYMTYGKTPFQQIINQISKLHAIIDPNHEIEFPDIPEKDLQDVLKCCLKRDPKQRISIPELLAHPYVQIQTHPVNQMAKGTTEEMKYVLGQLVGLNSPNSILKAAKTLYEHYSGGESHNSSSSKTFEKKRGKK
MPS1 full length (corresponding to residues 2-857 of the full length sequence, see Swiss-Prot accession number P33981) was PCR amplified from the full-length human MPS1 gene present in house as clone pGEX4t_MPS1.
Baculoviruses were generated by cotransfecting Sf9 insect cells with the expression vector and the viral DNA using the BaculoGold® transfection kit (Pharmingen). Viral supernatant was recovered after 5 days and subjected to 3 rounds of amplification to increase viral titer. Recombinant protein was produced by infecting High5 insect cells. After 72 hours of infection at 21° C., cells were recovered, pelletted and freezed at −80° C. For purification of recombinant protein, pellet was thawed, resuspended in lysis buffer (PBS, NaCl 150 mM, Glycerol 10%, CHAPS 0.1%, DTT 20 mM, protease and phosphatase inhibitors) and lysed by Gaulin. Lysate was cleared by centrifugation and loaded on a GST affinity column. After extensive wash, recombinant protein was cleaved by a specific protease and eluted by incubation.
To get a fully activated enzyme, the protein was then subjected to auto-phosphorylation in presence of ATP 1 mM at 25° C. for 2 hours in kinase buffer (Hepes pH7.5 50 mM, MgCl2 2.5 mM, MnCl2 1 mM, DTT 1 mM, phosphatase inhibitors); ATP was then removed whit a desalting column.
(§1) Biochemical Assay for Inhibitors of MPS1 and PERK Kinase Activity
(§2) The inhibitory activity of putative kinase inhibitors and the potency of selected compounds were determined using a trans-phosphorylation assay.
Specific peptide or protein substrates are trans-phosphorylated by their specific ser-thr or tyr kinase in the presence of ATP traced with ^33P-γ-ATP, and in the presence of their own optimal buffer and cofactors. […]
Supernatant is subsequently withdrawn and transferred into a counting plate, then evaluated by β-counting. […]

In the next assay the target is PERK (Homo sapiens (Human), UniProt Q9NZJ5). Kind of assay: Biochemical trans-phosphorylation (Dowex, 33P-γ-ATP) assay for inhibitors of PERK kinase activity. As to conditions: PERK 8 nM, 52 microM ATP, eIF2alfa-tide 300 microM. On the procedure:
Cloning, Expression and Purification of Recombinant PERK Cytoplasmic Domain Protein.
PERK cytoplasmic domain (corresponding to residues 540-1115; Swiss-Prot accession number Q9NZJ5) was PCR amplified using the following forward oligonucleotide:
Recombinant protein was produced in BL21(DE3)pLysS strain, in auto-induction medium, at 21° C. for 24 hours (see F. W. Studier, “Protein production by auto-induction in high density shaking cultures”, Protein Expression and Purification (2005) vol. 41:207-234). The cells were recovered by centrifugation, and the pellet frozen at −80° C. For purification of recombinant protein, pellet was thawed, resuspended in lysis buffer (Tris-HCl 50 mM pH 7.6, NaCl 250 mM, Glycerol 10%, CHAPS 0.2%, Imidazole 5 mM, protease and phosphatase inhibitors) and lysed by Gaulin homogenizer. Lysate was cleared by centrifugation and loaded on a Ni-NTA and the eluate on a GST affinity column. After extensive wash, recombinant protein was cleaved by a specific protease and eluted. Recombinant PERK cytoplasmic domain obtained by this protocol was >85% pure by coomassie stained SDS-PAGE.
as §1, §2
Specific peptide or protein substrates are trans-phosphorylated by their specific ser-thr or tyr kinase in the presence of ATP traced with ^33P-γ-ATP, and in the presence of their own optimal buffer and cofactors.
At the end of the phosphorylation reaction, more than 98% unlabeled ATP and radioactive ATP is captured by an excess of the ion exchange dowex resin; the resin then settles down to the bottom of the reaction plate by gravity.
Supernatant is subsequently withdrawn and transferred into a counting plate, then evaluated by β-counting.
The buffer for PERK assay was composed of HEPES 50 mM, at pH 7.5 with 3 mM MgCl2, 1 mM DTT, 3 microM Na3VO4, and 0.2 mg/mL BSA […]

Chain of PERK (Q9NZJ5 540-1115): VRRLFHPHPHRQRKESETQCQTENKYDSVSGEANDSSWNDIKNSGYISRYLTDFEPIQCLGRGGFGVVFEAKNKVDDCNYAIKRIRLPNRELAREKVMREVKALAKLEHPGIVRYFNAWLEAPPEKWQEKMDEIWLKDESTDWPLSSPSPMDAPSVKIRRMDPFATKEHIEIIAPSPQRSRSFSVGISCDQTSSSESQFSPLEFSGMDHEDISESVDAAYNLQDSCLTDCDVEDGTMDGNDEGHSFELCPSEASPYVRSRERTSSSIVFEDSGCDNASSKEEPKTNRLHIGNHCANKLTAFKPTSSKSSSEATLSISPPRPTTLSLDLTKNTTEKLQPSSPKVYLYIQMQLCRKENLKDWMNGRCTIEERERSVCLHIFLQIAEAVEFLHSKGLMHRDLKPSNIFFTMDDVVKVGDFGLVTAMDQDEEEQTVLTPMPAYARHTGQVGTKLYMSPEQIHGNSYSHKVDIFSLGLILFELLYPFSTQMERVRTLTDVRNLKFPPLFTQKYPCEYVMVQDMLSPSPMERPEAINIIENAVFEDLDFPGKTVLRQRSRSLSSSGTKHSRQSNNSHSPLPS

Usually IC50 stands for the point on the concentration scale where inhibition reaches its midpoint. Read a low IC50 as greater potency in that assay. For `COc1cc(C(=O)NC2CCN(C)CC2)ccc1Nc1ncc2c(n1)-c1noc(C(N)=O)c1C(C)(C)C2` [Compound 30, 8-({2-methoxy-4-[(1-methylpiperidin-4-yl)carbamoyl]phenyl}amino)-4,4-dimethyl-4,5-dihydroisoxazolo[4,3-h]quinazoline-3-carboxamide], the IC50 amounted to 0.68 µM against MPS1 and 0.4 µM on PERK.

Regarding `COc1cc(C(=O)NC2CCN(C)CC2)ccc1Nc1ncc2c(n1)-c1onc(C(N)=O)c1CC2(C)C` [Compound 55, 8-({2-methoxy-4-[(1-methylpiperidin-4-yl)carbamoyl]phenyl}amino)-5,5-dimethyl-4,5-dihydroisoxazolo[4,5-h]quinazoline-3-carboxamide], the IC50 at MPS1 is 3.44 µM; at PERK, 0.51 µM.

On to `COc1cc(C(=O)NC2CCN(C)CC2)ccc1Nc1ncc2c(n1)-c1onc(C(=O)N[C@@H](CN)c3ccccc3)c1CC2(C)C` [Compound 61, N-[(1R)-2-amino-1-phenylethyl]-8-({2-methoxy-4-[(1-methylpiperidin-4-yl)carbamoyl]phenyl}amino)-5,5-dimethyl-4,5-dihydroisoxazolo[4,5-h]quinazoline-3-carboxamide], for which the values for the half-maximal inhibitory concentration (IC50) at MPS1 and against PERK were 0.36 µM and 0.24 µM, respectively.
